Test [1] has as its system HepG2. Kind of test: Inhibition of lipid accumulation in human HepG2 cells at 20 uM incubated for 24 hrs by Oil Red O staining analysis relative to oleic acid. It is filed as functional.
In test [2] the test system is HepG2. Kind of test: Increase in glycerol release in human HepG2 cells at 25 uM incubated for 24 hrs by microplate reader analysis. Type of test: functional, cell-based.
Test [3] can be described thus: Reduction in melanin production in mouse Melan-a cells at 5 uM measured after 72 hrs by microplate reader. Type of test: functional.
For test [4], the system named is Melan-a. The test is described as follows: Reduction in MITF protein expression in mouse Melan-a cells at 5 uM measured after 72 hrs by Western blot analysis. It is filed as functional, cell-based. For orientation: In western blotting, separated proteins are transferred to a membrane and probed.
Test [5] has as its system Melan-a. The test is described as follows: Reduction in tyrosinase protein expression in mouse Melan-a cells at 5 uM measured after 72 hrs by Western blot analysis. Type of test: functional, cell-based.
In test [6] the test system is Melan-a. Kind of test: Reduction in TRP1 protein expression in mouse Melan-a cells at 5 uM measured after 72 hrs by Western blot analysis. It is filed as functional, cell-based.
The target of test [7] is T1, Tyrosinase (Agaricus bisporus) (UniProt O42713).
T1 sequence (whole entry): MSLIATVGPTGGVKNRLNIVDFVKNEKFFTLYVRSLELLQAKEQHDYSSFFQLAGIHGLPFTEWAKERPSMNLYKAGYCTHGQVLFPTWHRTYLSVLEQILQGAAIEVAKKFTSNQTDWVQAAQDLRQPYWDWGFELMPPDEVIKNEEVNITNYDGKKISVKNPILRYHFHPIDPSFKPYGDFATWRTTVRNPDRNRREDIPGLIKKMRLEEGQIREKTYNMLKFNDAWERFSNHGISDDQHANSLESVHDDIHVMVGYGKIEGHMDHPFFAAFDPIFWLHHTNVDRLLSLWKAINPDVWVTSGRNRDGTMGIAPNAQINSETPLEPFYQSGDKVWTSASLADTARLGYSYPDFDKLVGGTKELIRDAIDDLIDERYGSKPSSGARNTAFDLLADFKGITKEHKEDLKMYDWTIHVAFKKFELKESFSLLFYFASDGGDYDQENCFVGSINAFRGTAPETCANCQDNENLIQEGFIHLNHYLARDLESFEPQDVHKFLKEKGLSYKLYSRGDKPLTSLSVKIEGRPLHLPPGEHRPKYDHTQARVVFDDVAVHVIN
The test is described as follows: Inhibition of mushroom tyrosinase activity at 5 uM measured after 1 hr by microplate reader analysis.

The source made the active and inactive calls. The calls are words filed in the database; no cut-off is given here.

By inhibition is commonly meant the drop in the measured response relative to a control, in per cent. With `C/C(=C\CC1=C[C@@H]2C(=O)C(O)=C[C@]12C(C)C)CO`, in the test with HepG2 [1], the inhibition at 20 µM was 29%.

In turn, `C/C(=C\C[C@@]12C=C[C@]1(O)C(=O)C=C2C(C)C)CO` returned an inhibition at 20 µM in the test with HepG2 [1] of 29%. The result in the test with HepG2 [2] was Active.

As to `C/C(=C\C[C@]12C=C[C@@]1(O)C(=O)C=C2C(C)C)CO`, the inhibition at 20 µM with HepG2 [1] amounted to 29%. In the test with HepG2 [2], the outcome was Active.

In turn, `C/C(=C\CC1=C[C@H]2C(=O)C(O)=C[C@@]12C(C)C)CO` returned an inhibition at 20 µM with HepG2 [1] of 29%.

In turn, `C/C(=C\Cc1ccc(=O)c(O)cc1C(C)C)CO` showed an inhibition at 5 µM in test [3] of 10%. The result in the test on Melan-a [4], in the test on Melan-a [5], in the test with Melan-a [6] and in the test on HepG2 [2] was Active. Moreover, 20 µM produced 29% inhibition in the test on HepG2 [1]. In addition, in test [7], the inhibition entry was “Active”.

Source of the values: ChEMBL document CHEMBL4842334, “Tropolone-Bearing Sesquiterpenes from Juniperus chinensis: Structures, Photochemistry and Bioactivity” (2021).
